Measurements as given in patent US10604524B2, “Pyrropyrimidine compounds as MNKs inhibitors” (LIFEARC, priority 2015, dated 2020).

Columns and labels:
Assay in all cases: Kinase selectivity screen
FGFR4 = FGFR4 (Homo sapiens, UniProt P22455); conditions: read-out: % Inhibition FGFR4
CDK1/CCNB1 = CDK1/CCNB1 (Homo sapiens, UniProt P06493); conditions: read-out: % Inhibition CDK1/CCNB1
STK17A = STK17A (Homo sapiens, UniProt Q9UEE5); conditions: read-out: % Inhibition STK17A
FGFR1 = FGFR1 (Homo sapiens, UniProt P11362); conditions: read-out: % Inhibition FGFR1
Chain of FGFR1 (P11362 22-822, species assumed): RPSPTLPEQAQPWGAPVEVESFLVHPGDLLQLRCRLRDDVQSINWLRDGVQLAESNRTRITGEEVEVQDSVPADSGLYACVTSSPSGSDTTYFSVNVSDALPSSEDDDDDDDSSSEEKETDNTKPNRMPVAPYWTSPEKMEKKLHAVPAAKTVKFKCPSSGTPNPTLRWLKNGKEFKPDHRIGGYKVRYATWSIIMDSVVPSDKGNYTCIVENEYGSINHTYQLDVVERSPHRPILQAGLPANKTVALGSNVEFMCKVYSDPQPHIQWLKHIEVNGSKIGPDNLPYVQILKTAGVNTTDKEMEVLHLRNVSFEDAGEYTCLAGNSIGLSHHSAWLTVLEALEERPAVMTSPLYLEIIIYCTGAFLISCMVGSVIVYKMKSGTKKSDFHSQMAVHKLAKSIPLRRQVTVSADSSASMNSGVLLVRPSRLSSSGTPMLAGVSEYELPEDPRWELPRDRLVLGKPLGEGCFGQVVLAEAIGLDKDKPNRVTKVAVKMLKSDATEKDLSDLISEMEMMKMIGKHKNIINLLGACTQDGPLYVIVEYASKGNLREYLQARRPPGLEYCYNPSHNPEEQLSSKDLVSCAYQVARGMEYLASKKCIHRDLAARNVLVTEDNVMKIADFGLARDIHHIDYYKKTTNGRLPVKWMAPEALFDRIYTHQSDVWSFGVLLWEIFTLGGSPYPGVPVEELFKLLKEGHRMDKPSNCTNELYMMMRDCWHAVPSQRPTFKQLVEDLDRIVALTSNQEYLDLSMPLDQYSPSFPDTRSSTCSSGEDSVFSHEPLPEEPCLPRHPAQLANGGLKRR

PAK4 = PAK4 (Homo sapiens, UniProt O96013); conditions: read-out: % Inhibition PAK4
ROCK1 = ROCK1 (Homo sapiens, UniProt Q13464); conditions: read-out: % Inhibition ROCK1
FLT3 = FLT3 (Homo sapiens, UniProt P36888); conditions: read-out: % Inhibition FLT3
ROS1 = ROS1 (Homo sapiens, UniProt P08922); conditions: read-out: % Inhibition ROS1
EEF2K = EEF2K (Homo sapiens, UniProt O00418); conditions: read-out: % Inhibition EEF2K
LCK = LCK (Homo sapiens, UniProt P06239); conditions: read-out: % Inhibition LCK
Chain of LCK (P06239 whole entry, species assumed): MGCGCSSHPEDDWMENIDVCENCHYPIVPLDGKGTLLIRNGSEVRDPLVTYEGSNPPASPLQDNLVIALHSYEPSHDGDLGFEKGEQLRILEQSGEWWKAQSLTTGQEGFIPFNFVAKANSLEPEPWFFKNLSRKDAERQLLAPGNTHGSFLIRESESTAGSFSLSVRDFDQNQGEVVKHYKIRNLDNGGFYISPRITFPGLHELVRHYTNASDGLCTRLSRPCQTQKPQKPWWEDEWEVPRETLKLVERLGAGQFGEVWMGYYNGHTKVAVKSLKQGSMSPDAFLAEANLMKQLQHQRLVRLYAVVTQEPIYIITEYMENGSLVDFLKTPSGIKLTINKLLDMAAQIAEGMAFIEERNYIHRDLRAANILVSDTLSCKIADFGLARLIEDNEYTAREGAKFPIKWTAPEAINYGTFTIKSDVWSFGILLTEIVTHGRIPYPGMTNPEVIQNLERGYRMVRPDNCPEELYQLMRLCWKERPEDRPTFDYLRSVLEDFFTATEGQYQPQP

PAK1 = PAK1 (Homo sapiens, UniProt Q13153); conditions: read-out: % Inhibition PAK1
CDK6/CCND3 = CDK6/CCND3 (Homo sapiens, UniProt Q00534); conditions: read-out: % Inhibition CDK6/CCND3
MAP3K9 = MAP3K9 (Homo sapiens, UniProt P80192); conditions: read-out: % Inhibition MAP3K9
PIK3C2G = PIK3C2G (Homo sapiens, UniProt O75747); conditions: read-out: % Inhibition PIK3C2G
BMX = BMX (Homo sapiens, UniProt P51813); conditions: read-out: % Inhibition BMX
Chain of BMX (P51813 whole entry, species assumed): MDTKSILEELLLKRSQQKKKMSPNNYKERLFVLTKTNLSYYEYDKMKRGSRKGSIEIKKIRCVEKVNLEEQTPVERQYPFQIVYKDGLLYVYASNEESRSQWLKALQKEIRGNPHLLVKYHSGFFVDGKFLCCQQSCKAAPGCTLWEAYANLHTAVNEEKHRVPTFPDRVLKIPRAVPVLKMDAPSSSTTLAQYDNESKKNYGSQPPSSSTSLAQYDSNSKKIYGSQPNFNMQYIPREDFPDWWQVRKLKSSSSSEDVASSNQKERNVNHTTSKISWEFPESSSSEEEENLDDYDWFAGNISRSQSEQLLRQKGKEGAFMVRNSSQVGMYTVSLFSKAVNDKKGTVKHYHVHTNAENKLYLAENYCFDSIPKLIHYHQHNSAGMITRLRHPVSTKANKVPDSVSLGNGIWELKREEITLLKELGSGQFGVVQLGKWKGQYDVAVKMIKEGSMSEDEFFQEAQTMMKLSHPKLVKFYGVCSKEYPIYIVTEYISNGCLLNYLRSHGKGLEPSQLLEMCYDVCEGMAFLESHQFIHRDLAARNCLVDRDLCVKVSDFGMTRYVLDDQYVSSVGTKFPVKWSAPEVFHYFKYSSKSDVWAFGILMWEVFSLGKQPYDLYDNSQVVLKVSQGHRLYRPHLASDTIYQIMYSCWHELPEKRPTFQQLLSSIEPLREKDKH

AKT2 = AKT2 (Homo sapiens, UniProt P31751); conditions: read-out: % Inhibition AKT2
Chain of AKT2 (P31751 whole entry, species assumed): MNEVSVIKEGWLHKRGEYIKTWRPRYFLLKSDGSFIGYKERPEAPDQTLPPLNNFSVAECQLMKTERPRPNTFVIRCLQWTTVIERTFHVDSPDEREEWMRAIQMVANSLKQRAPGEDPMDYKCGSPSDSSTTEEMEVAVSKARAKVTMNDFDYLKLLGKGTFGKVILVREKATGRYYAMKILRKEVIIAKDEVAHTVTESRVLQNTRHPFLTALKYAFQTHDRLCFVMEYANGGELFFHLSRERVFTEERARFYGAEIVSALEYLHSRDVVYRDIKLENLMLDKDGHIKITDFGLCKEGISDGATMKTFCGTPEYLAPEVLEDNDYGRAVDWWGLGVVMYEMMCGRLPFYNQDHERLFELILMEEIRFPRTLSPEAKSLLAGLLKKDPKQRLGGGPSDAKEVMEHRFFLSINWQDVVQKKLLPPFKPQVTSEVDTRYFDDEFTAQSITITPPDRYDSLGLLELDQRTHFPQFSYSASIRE

STK4 = STK4 (Homo sapiens, UniProt Q13043); conditions: read-out: % Inhibition STK4
NUAK1 = NUAK1 (Homo sapiens, UniProt O60285); conditions: read-out: % Inhibition NUAK1
ERBB4 = ERBB4 (Homo sapiens, UniProt Q15303); conditions: read-out: % Inhibition ERBB4
PRAK = PRAK (Homo sapiens, UniProt Q8IW41); conditions: read-out: % Inhibition PRAK
FER = FER (Homo sapiens, UniProt P16591); conditions: read-out: % Inhibition FER
IGF1R = IGF1R (Homo sapiens, UniProt P08069); conditions: read-out: % Inhibition IGF1R
MKNK2 = MKNK2 (Homo sapiens, UniProt Q9HBH9); type: biochemical; conditions: 1 μM compound
MAPK8 = MAPK8 (Homo sapiens, UniProt P45983); conditions: read-out: % Inhibition MAPK8
PRKG1 = PRKG1 (Homo sapiens, UniProt Q13976); conditions: read-out: % Inhibition PRKG1
Chain of PRKG1 (Q13976 whole entry, species assumed): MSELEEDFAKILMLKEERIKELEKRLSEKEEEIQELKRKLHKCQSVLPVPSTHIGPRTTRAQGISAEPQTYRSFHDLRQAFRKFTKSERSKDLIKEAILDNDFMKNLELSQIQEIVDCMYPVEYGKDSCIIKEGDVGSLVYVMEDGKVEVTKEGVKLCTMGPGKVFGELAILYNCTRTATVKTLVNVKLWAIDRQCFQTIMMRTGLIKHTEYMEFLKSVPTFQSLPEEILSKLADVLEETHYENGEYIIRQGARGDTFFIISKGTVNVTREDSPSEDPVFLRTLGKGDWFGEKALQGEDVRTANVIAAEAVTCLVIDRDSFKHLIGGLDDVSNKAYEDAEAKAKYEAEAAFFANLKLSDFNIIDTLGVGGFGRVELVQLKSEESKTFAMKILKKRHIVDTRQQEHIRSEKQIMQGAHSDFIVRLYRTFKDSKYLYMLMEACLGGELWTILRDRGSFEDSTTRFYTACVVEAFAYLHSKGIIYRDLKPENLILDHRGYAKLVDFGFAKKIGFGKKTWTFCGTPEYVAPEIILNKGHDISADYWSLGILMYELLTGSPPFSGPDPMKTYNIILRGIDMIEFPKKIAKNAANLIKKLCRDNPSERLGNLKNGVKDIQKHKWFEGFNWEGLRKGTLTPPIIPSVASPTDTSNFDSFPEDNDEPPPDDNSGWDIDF

INSR = INSR (Homo sapiens, UniProt P06213); conditions: read-out: % Inhibition INSR
PTK2 = PTK2 (Homo sapiens, UniProt Q05397); conditions: read-out: % Inhibition PTK2
AURKB = AURKB (Homo sapiens, UniProt Q96GD4); conditions: read-out: % Inhibition AURKB
NTRK1 = NTRK1 (Homo sapiens, UniProt P04629); conditions: read-out: % Inhibition NTRK1
MARK1 = MARK1 (Homo sapiens, UniProt Q9P0L2); conditions: read-out: % Inhibition MARK1
CDK9/CCNT1 = CDK9/CCNT1 (Homo sapiens, UniProt P50750); conditions: read-out: % Inhibition CDK9/CCNT1
Chain of CDK9/CCNT1 (P50750 whole entry, species assumed): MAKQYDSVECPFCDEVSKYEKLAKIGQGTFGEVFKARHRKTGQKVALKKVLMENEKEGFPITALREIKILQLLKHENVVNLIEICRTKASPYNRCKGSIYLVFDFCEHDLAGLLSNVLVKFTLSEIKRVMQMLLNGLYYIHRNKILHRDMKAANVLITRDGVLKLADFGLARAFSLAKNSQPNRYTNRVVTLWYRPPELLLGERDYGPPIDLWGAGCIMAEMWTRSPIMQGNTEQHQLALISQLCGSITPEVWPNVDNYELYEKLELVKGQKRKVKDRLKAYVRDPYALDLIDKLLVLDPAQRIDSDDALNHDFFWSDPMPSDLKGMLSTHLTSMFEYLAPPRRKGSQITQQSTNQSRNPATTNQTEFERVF
Chain of CDK9/CCNT1 (O60563 whole entry partner, species assumed): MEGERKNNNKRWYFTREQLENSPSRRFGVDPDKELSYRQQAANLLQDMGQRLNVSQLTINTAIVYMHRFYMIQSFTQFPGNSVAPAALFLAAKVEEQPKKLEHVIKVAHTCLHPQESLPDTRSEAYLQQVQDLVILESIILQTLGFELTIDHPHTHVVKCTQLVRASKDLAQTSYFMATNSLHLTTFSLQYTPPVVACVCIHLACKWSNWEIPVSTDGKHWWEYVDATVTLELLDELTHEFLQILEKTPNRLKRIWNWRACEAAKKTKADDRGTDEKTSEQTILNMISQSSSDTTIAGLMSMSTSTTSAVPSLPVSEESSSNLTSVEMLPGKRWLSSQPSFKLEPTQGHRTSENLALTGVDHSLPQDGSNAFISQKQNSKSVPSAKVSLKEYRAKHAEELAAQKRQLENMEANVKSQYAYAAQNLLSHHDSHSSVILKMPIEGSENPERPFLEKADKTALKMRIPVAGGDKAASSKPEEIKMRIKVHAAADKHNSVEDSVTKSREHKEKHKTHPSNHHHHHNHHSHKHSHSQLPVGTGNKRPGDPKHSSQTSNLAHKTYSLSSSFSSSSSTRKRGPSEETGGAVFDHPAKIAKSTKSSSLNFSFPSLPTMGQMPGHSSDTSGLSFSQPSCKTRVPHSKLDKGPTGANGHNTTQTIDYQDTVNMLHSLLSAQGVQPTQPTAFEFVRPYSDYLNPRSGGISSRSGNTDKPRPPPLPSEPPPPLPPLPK

FLT1 = FLT1 (Homo sapiens, UniProt P17948); conditions: read-out: % Inhibition FLT1
CSF1R = CSF1R (Homo sapiens, UniProt P07333); conditions: read-out: % Inhibition CSF1R
PDPK1 = PDPK1 (Homo sapiens, UniProt O15530); conditions: read-out: % Inhibition PDPK1

Chain of CDK1/CCNB1 (P06493 whole entry, species assumed): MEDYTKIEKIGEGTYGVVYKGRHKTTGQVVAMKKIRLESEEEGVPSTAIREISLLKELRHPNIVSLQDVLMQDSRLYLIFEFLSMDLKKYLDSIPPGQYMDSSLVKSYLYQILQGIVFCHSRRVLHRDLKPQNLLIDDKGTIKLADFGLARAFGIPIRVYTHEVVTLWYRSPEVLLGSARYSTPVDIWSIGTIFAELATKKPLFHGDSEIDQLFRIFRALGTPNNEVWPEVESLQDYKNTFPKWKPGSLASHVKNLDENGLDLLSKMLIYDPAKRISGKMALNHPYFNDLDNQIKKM
Chain of CDK1/CCNB1 (P14635 whole entry partner, species assumed): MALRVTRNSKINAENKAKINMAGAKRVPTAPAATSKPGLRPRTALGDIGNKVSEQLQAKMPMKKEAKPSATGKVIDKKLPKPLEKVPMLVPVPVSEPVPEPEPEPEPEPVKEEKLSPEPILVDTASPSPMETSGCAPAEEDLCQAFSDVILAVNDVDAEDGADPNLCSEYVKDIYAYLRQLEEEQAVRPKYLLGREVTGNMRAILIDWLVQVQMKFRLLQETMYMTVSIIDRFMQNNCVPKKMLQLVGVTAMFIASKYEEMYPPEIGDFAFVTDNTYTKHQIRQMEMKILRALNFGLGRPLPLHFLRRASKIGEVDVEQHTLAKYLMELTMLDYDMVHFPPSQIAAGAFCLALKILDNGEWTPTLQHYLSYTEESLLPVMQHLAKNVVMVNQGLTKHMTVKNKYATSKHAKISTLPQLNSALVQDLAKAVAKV

Compound `CC(C)Oc1cc(F)ccc1Nc1ncnc2cc(C(=O)NCCCN(C)C)n(C)c12` [Example 40, N-[3-(dimethylamino)propyl]-4-{[4-fluoro-2-(propan-2-yloxy)phenyl]amino}-5-methyl-5H-pyrrolo[3,2-d]pyrimidine-6-carboxamide] has an inhibition at 1 µM (FGFR4) of 0%, an inhibition at 1 µM (CDK1/CCNB1) of 0% and an inhibition at 1 µM (STK17A) of 2%. It also gave an inhibition at 1 µM (FGFR1) of 0%, an inhibition at 1 µM (PAK4) of 0% and an inhibition at 1 µM (ROCK1) of 0%. For the same compound, the inhibition at 1 µM (FLT3) was 24%, the inhibition at 1 µM (ROS1) was 0% and the inhibition at 1 µM (EEF2K) was 0%. It also gave an inhibition at 1 µM (LCK) of 0%, an inhibition at 1 µM (PAK1) of 0% and an inhibition at 1 µM (CDK6/CCND3) of 0%. The inhibition at 1 µM (MAP3K9) was 0%, the inhibition at 1 µM (PIK3C2G) was 4% and the inhibition at 1 µM (BMX) was 0%. For the same compound, the inhibition at 1 µM (AKT2) was 0%, the inhibition at 1 µM (STK4) was 0% and the inhibition at 1 µM (NUAK1) was 0%. For the same compound, the inhibition at 1 µM (ERBB4) was 0%, the inhibition at 1 µM (PRAK) was 0% and the inhibition at 1 µM (FER) was 0%. It also gave an inhibition at 1 µM (IGF1R) of 0%, an inhibition at 1 µM (MKNK2) of 84% and an inhibition at 1 µM (MAPK8) of 0%. For the same compound, the inhibition at 1 µM (PRKG1) was 0%, the inhibition at 1 µM (INSR) was 0% and the inhibition at 1 µM (PTK2) was 7%. For the same compound, the inhibition at 1 µM (AURKB) was 14%, the inhibition at 1 µM (NTRK1) was 0% and the inhibition at 1 µM (MARK1) was 0%. The inhibition at 1 µM (CDK9/CCNT1) was 0%, the inhibition at 1 µM (FLT1) was 8% and the inhibition at 1 µM (CSF1R) was 8%. For the same compound, the inhibition at 1 µM (PDPK1) was 0%.
